# According to patent US20110269777A1, “METHODS AND COMPOSITIONS FOR TREATING SCHIZOPHRENIA USING ANTIPSYCHOTIC COMBINATION THERAPY” (Medivation Neurology, Inc., priority 2007, published 2011):
# Where a name gives a salt, the structure may show the parent alone.
# Columns and labels:
# [1] = system: NMDA-induced currents in cultured rat hippocampus neurons (NMDA receptors); assay: NMDA-induced current blocking, patch clamp, whole cell configuration; assay type: cell-based; settings: for Effect on the blocking effect of MK-801 on NMDA-induced currents: preliminary application before MK-801
# Protocol: Experiments were carried out by the patch clamp method on freshly isolated neurons of a rat brain cortex or on cultured rat hippocampus neurons. Neurons for cultivation were obtained from the hippocampus of neonatal rats (1-2 days) by the method of trypsinization followed by pipetting. Cells suspended in culture medium were placed in 3 mL quantities into the wells of a 6-well planchette (Nunc) or into Petri dishes, in which glasses coated with poly-L-lysine had first been placed. The cell concentration as a rule was […]. The culture medium consisted of Eagle's minimum medium and a DME/F12 medium (1:1) supplemented with 10% calf serum, 2 mM glutamine, 50 μg/mL gentamycin, 15 mM glucose and 20 mM KCl, with the pH brought to between 7.0 and 7.4 using NaHCO3. Planchettes containing cultures were placed in a CO2— incubator at 37° C. and 100% humidity. Cytosine arabinoside (10-20 μL) was added on the second to third day of cultivation. After 6-7 days of cultivation 1 mg/mL glucose was added to the medium, or the medium was exchanged, depending on the following experiment. The cultured hippocampus neurons were placed in a 0.4 mL working chamber. The working solution had the following composition: 150.0 mM NaCl, 5.0 mM KCl, 2.6 mM CaCl2, 2.0 mM MgSO4×7H2O, 10 mM HEPES, and 15.0 mM Glucose, at pH 7.36.
# Transmembrane currents produced by application of NMDA were registered by the patch clamp electrophysiological method in the whole cell configuration. Application of substances was done by the method of rapid superfusion. Currents were registered with the aid of borosilicate microelectrodes (resistance […]) filled with the following composition: 100.0 mM KCl, 11.0 mM EGTA, 1.0 mM CaCl2, 1.0 mM MgCl2, 10.0 mM HEPES, and 5.0 mM ATP, at pH 7.2. An EPC-9 instrument (HEKA, Germany) was used for registration. Currents were recorded on the hard disk of a Pentium-IV PC using the pulse program, which is also purchased from HEKA. The results were analyzed with the aid of the Pulsefit program (HEKA).
# [2] = system: patients with schizophrenia, paranoid type; assay: Double-blind placebo-controlled clinical study, efficacy assessment scales (PANSS, CGI, Calgary, NSA-16); assay type: in vivo, human
# Protocol: (§1) A double-blind, placebo-controlled clinical study was conducted to evaluate the effect of a combination therapy of risperidone (3-[2-[4-(6-fluoro-1,2-benzoxazol-3-yl)piperidin-1-yl]ethyl]-2-methyl-6,7,8,9-tetrahydropyrido[2,1-b]pyrimidin-4-one) plus dimebon (2,8-dimethyl-5-(2-(6-methyl-3-pyridyl)ethyl)-2,3,4,5-tetrahydro-1H-pyrido[4,3-b]indole dihydrochloride) for treatment of chronic schizophrenia compared to risperidone treatment alone. The treatment trial was designed as randomized placebo-controlled, double-blind study of 60 patients meeting diagnostic criteria for schizophrenia, paranoid type, and episodic course (DSM IV-295.30).
# (§2) The study included 60 patients with a diagnosis of continuous paranoid and episodic-progressive schizophrenia with a current condition of drug remission or development of drug remission, without regard to the syndrome determining the current mental status. […] According to DSM-IV, these patients met criteria 295.30, schizophrenia, paranoid type, […]. Patients were selected to participate in the study according to the following criteria: (1) inclusion criteria: male patients, 18 year old or older, schizophrenia, paranoid type, and episodic course in remission or partial remission and responders or partial responders to risperidone; and (2) exclusion criteria: excitement, impulsiveness or aggressive behavior (more than moderate), non-responders to antipsychotic treatment including risperidone, having mental disorders other than (or in addition to) schizophrenia, necessity of other treatment and severe acute somatic diseases or decompensated chronic somatic diseases.
# (§3) In the first stage of the study (2 weeks), patients who provide an informed consent for participation in the study and who met the inclusion/exclusion criteria were switched to monotherapy with risperidone (dose adjustment of risperidone in range from 2 mg to 6 mg per day), and the clinical stability of the patients was evaluated weekly over two weeks. […] Again, clinical stability of the study participants was evaluated weekly for four weeks. In the third stage (8 weeks), after 4 weeks of monotherapy with risperidone, patients were divided into two groups. Group 1 received dimebon, (20 mg three times daily, n=23) in addition to risperidone therapy. Group 2 received a placebo (n=24) in addition to risperidone therapy. Again, clinical stability of the study participants was evaluated weekly for eight weeks. In the fourth stage (follow-up period), 6 months after completion of therapy within the framework of the protocol, the stability of the characteristics achieved in the course of the study were evaluated. In the fourth stage, clinical stability of the study participants was evaluated monthly for six months.
# (§4) The study was conducted as follows. The patients were evaluated clinically and by psychopathological (descriptive) methods during every visit. The patients were evaluated according to the psychometric method at the end of the first period, at the end of the second period, after 4 weeks of the third period and at the end of the third period using the following criteria (A) Efficacy assessment scales such as (1) Positive and Negative Syndrome Scale (PANSS scale; Kay, S. R., Fiszbein, A., and Opler, L. A., Schizophrenia Bulletin 13(2):261-76 (1987)); (2) Clinical Global Impression-Severity (CGI-S) and Clinical Global Impression-Improvement (CGI-I); (3) Calgary depression rating scale (Addington, D., Addington, J., and Maticka-Tyndale E., British J. Psych. Suppl. 22:39-44 (1993)); and (4) Negative Symptoms Assessment-16 (NSA-16) (Alphs, L., Summerfelt, A., Lann, H., and Muller, R. J., Psychopharm. Bull. 25:159-163 (1989)); and (B) Safety scales such as (1) the Barnes Akathisia Rating Scale (BARS) (Barnes, T. R., British J. Psych. 154:672-676 (1989)); and (2) the Simpson-Angus Rating Scale (SARS) (Simpson, G. N. and Angus, J. W. S., Acta Psych. Scand. 212(suppl. 44):11-19 (1970)). […]
# [3] = system: patients with schizophrenia, paranoid type; assay: Double-blind placebo-controlled clinical study, neurocognitive assessment tests; assay type: in vivo, human
# Protocol: as §1, §2, §3, §4
# [4] = system: patients with schizophrenia, paranoid type
# [5] = end (8 weeks dimebon 20 mg three times daily + risperidone)
# [6] = start (before adding dimebon to risperidone)
# [7] = end (8 weeks dimebon + risperidone)
smiles,measurement,setting,value
"N[C@H](CCCP(=O)(O)O)C(=O)O [D-AP5, D-2-amino-5-phosphonovaleric acid, reference compound]",Effect on the blocking effect of MK-801 on NMDA-induced currents,[1],did not decrease
"Cc1ccc2c(c1)c1c(n2CCc2ccc(C)nc2)CCN(C)C1 [Dimebon, 2,8-dimethyl-5-[2-(6-methylpyridyl-3)ethyl]-2,3,4,5-tetrahydro-1H-pyrido[4,3-b]indole dihydrochloride]",Blockade of NMDA-induced currents (%),"[1]; at 10 μM, cultured rat hippocampus neurons",By 50-70% at 10 μM
same,IC50,"[1]; average, read-out: IC50, blocking of currents caused by application of NMDA",7.7 ± 1.9 µM
same,Effect on the blocking effect of MK-801 on NMDA-induced currents,[1],capable of reducing
same,total PANSS score relative to placebo,[2]; adjunctive dimebon on background risperidone therapy,significant reduction
same,% improvement,[2]; [5],8.14 ± 49.4%
same,CGI I,[2]; [5],2.7 ± 1.0
same,CGI-S,[2]; [5],3.9 ± 1.2
same,Calgary scale of depression,[2]; [5],8.1 ± 9.97
same,NSA-16,[2]; [5],48.5 ± 22.7
same,PANSS general psychopathol,[2]; [5],31.4 ± 11.1
same,PANSS negative,[2]; [5],18.48 ± 7.01
same,PANSS positive,[2]; [5],12.0 ± 5.9
same,PANSS total,[2]; [5],61.9 ± 22.2
same,CGI-S,[2]; [6],4.3 ± 1
same,Calgary scale of depression,[2]; [6],11.6 ± 11.6
same,NSA-16,[2]; [6],64.65 ± 22.8
same,PANSS general psychopathol,[2]; [6],39.1 ± 8.1
same,PANSS negative,[2]; [6],22.5 ± 5.15
same,PANSS positive,[2]; [6],16.9 ± 4.6
same,PANSS total,[2]; [6],78.5 ± 14.1
same,"verbal associative memory, psychomotor speed, visual-spatial memory and number aspects of executive functioning","[3]; dimebon group, start to end of 8 weeks on risperidone background",significant improvement
same,Benton test: sum error,[3]; [7],6.5 ± 4.4
same,Benton test: sum reconst,[3]; [7],6 ± 2.21
same,Bourdohn test: attention concentration,[3]; [7],0.986 ± 0.013
same,Bourdohn test: attention productivity,[3]; [7],497 ± 170
same,Bourdohn test: attention stability,[3]; [7],0.009 ± 0.006
same,CAT: correct answer account,[3]; [7],37 ± 8.2
same,CAT: reaction time,[3]; [7],630.17 ± 195.55
same,Schulte tables: sum time,[3]; [7],166 ± 64
same,Text 1 Reconstruction 1. quantity of elements,[3]; [7],7 ± 2.6
same,Text 2 Reconstruction 1 quantity of elements,[3]; [7],9 ± 3.0
same,Tower of London - correct score,[3]; [7],3.26
same,Tower of London - execution time,[3]; [7],234 ± 115
same,Tower of London - sum total time > 60 sec,[3]; [7],0 ± 1.5
same,Tower of London -move score,[3]; [7],34 ± 19
same,"Wechsler memory scale, subtest V: series A",[3]; [7],6 ± 0.9
same,"Wechsler memory scale, subtest V: sum A and B",[3]; [7],9.5 ± 2.7
same,"Wechsler memory scale, subtest V: sum A and B, (T-scores)",[3]; [7],8 ± 2.3
same,"Wechsler memory scale, subtest VII: sum comlex",[3]; [7],4.5 ± 3.34
same,"Wechsler memory scale, subtest VII: sum simple",[3]; [7],17 ± 2.9
same,"Wechsler memory scale, subtestV: series B",[3]; [7],4 ± 0.9
same,"Wechsler test, subtest VII: Symbol coding",[3]; [7],6 ± 1.4
same,"Wisconsin CS test - conceptual level responses, T score",[3]; [7],44 ± 6.7
same,"Wisconsin CS test - nonperseverative errors, T score",[3]; [7],43 ± 9.6
same,"Wisconsin CS test - perseverative responses, T score",[3]; [7],45 ± 5.53
same,Wisconsin CS test - total error - T score,[3]; [7],43 ± 8.1
same,"Wisconsin CS test perseverative errors, T score",[3]; [7],44 ± 5.6
same,Wisconsin CS test: categories completed,[3]; [7],5 ± 1.9
same,Wisconsin CS test: total correct responses,[3]; [7],78 ± 14
same,Benton test: sum error,[3]; [6],8 ± 3.8
same,Benton test: sum reconst,[3]; [6],5 ± 1.7
same,Bourdohn test: attention concentration,[3]; [6],0.975 ± 0.03
same,Bourdohn test: attention productivity,[3]; [6],399 ± 123
same,Bourdohn test: attention stability,[3]; [6],0.01 ± 0.01
same,CAT: correct answer account,[3]; [6],35 ± 8.5
same,CAT: reaction time,[3]; [6],606.74±
same,Schulte tables: sum time,[3]; [6],160 ± 105
same,Text 1 Reconstruction 1. quantity of elements,[3]; [6],5 ± 2.3
same,Text 2 Reconstruction 1 quantity of elements,[3]; [6],7 ± 2.7
same,Tower of London - correct score,[3]; [6],2 ± 1.1
same,Tower of London - execution time,[3]; [6],298 ± 227
same,Tower of London - sum total time > 60 sec,[3]; [6],1.5 ± 3
same,Tower of London -move score,[3]; [6],46 ± 25
same,"Wechsler memory scale, subtest V: series A",[3]; [6],6 ± 1
same,"Wechsler memory scale, subtest V: sum A and B",[3]; [6],10 ± 1.7
same,"Wechsler memory scale, subtest V: sum A and B, (T-scores)",[3]; [6],9 ± 2.3
same,"Wechsler memory scale, subtest VII: sum comlex",[3]; [6],3 ± 2.7
same,"Wechsler memory scale, subtest VII: sum simple",[3]; [6],14 ± 4
same,"Wechsler memory scale, subtestV: series B",[3]; [6],4 ± 1.2
same,"Wechsler test, subtest VII: Symbol coding",[3]; [6],5 ± 1.8
same,"Wisconsin CS test - conceptual level responses, T score",[3]; [6],43 ± 5.9
same,"Wisconsin CS test - nonperseverative errors, T score",[3]; [6],41 ± 7.9
same,"Wisconsin CS test - perseverative responses, T score",[3]; [6],43 ± 8.38
same,Wisconsin CS test - total error - T score,[3]; [6],43 ± 6.8
same,"Wisconsin CS test perseverative errors, T score",[3]; [6],43 ± 8.21
same,Wisconsin CS test: categories completed,[3]; [6],4 ± 1.7
same,Wisconsin CS test: total correct responses,[3]; [6],79 ± 16
same,safety issues,"[4]; dimebon 20 mg three times daily + risperidone, 8 weeks",no safety issues
same,"BARS and SARS safety scales, difference between study groups",[4]; dimebon group vs placebo group,no differences
